Reference: ChEMBL document CHEMBL1955736, “The anomeric mixture of some O-galactolipid derivatives is more toxic against cancer cells than either anomer alone” (Bioorg Med Chem Lett, 2012)

What was measured:
[1] = test system: HeLa; experiment: Cytotoxicity against human HeLa cells after 72 hrs by MTT assay; assay type: functional, cell-based
[2] = test system: HepG2; experiment: Cytotoxicity against human HepG2 cells after 72 hrs by MTT assay; assay type: functional, cell-based; settings: HepG2, 72 h
[3] = test system: A549; experiment: Cytotoxicity against human A549 cells after 72 hrs by MTT assay; assay type: functional, cell-based; settings: A549, 72 h
[4] = test system: HCT-116; experiment: Cytotoxicity against human HCT116 cells after 72 hrs by MTT assay; assay type: functional, cell-based; settings: HCT-116, 72 h
[5] = Cytotoxicity against mouse 3T3L1 cells assessed as viability at 100 ug/mL after 72 hrs by MTT assay; assay type: cell-based; settings: 3T3-L1 cells, read-out: Activity

| SMILES | IC50 [1] | IC50 [2] | IC50 [3] | IC50 [4] | viability at 72 h, 100 ug/mL [5] |
| --- | --- | --- | --- | --- | --- |
| CCCCCCCCCCCCCCCCO[C@@H]1O[C@H](CO)[C@H](O)[C@H](O)[C@H]1O | > 240 µM | > 240 µM | 151 µM | > 240 µM |  |
| CCCCCCCCCCO[C@H]1O[C@H](CO)[C@H](O)[C@H](O)[C@H]1O | > 240 µM | > 240 µM | 144 µM | > 240 µM |  |
| CCCCCCCCCCCO[C@H]1O[C@H](CO)[C@H](O)[C@H](O)[C@H]1O | 196 µM | 151 µM | 102 µM | 152 µM |  |
| CCCCCCCCCCCCO[C@H]1O[C@H](CO)[C@H](O)[C@H](O)[C@H]1O | 146 µM | 138 µM | 56.7 µM | 88.8 µM |  |
| CCCCCCCCCCCCCO[C@H]1O[C@H](CO)[C@H](O)[C@H](O)[C@H]1O | 73.3 µM | 89.9 µM | 51.8 µM | 75.1 µM |  |
| CCCCCCCCCCCCCCO[C@H]1O[C@H](CO)[C@H](O)[C@H](O)[C@H]1O | 67 µM | 68.1 µM | 49.6 µM | 72.8 µM |  |
| CCCCCCCCCCCCCCCO[C@H]1O[C@H](CO)[C@H](O)[C@H](O)[C@H]1O | 61.3 µM | > 240 µM | 46.8 µM | 52.5 µM |  |
| CCCCCCCCCCCCCCCCO[C@H]1O[C@H](CO)[C@H](O)[C@H](O)[C@H]1O | 54.6 µM | > 240 µM | 38.5 µM | 42.7 µM |  |
| CCCCCCCCCCO[C@@H]1O[C@H](CO)[C@H](O)[C@H](O)[C@H]1O | > 240 µM | > 240 µM | 157 µM | > 240 µM |  |
| CCCCCCCCCCCO[C@@H]1O[C@H](CO)[C@H](O)[C@H](O)[C@H]1O | 202 µM | 200 µM | 118 µM | 155 µM |  |
| CCCCCCCCCCCCO[C@@H]1O[C@H](CO)[C@H](O)[C@H](O)[C@H]1O | 151 µM | 162 µM | 77.2 µM | 97.8 µM |  |
| CCCCCCCCCCCCCO[C@@H]1O[C@H](CO)[C@H](O)[C@H](O)[C@H]1O | 148 µM | 142 µM | 62 µM | 85.3 µM |  |
| CCCCCCCCCCOC1O[C@H](CO)[C@H](O)[C@H](O)[C@H]1O (mixture of isomers) | 180 µM | 192 µM | 107 µM | 140 µM |  |
| CCCCCCCCCCCOC1O[C@H](CO)[C@H](O)[C@H](O)[C@H]1O (mixture of isomers) | 60.5 µM | 68.2 µM | 45.6 µM | 50.9 µM |  |
| CCCCCCCCCCCCOC1O[C@H](CO)[C@H](O)[C@H](O)[C@H]1O (mixture of isomers) | 58.6 µM | 63.4 µM | 40.8 µM | 47.7 µM |  |
| CCCCCCCCCCCCCOC1O[C@H](CO)[C@H](O)[C@H](O)[C@H]1O (mixture of isomers) | 57.1 µM | 54.3 µM | 39.3 µM | 38.7 µM |  |
| CCCCCCCCCCCCCCCCOC1O[C@H](CO)[C@H](O)[C@H](O)[C@H]1O (mixture of isomers) | 45 µM | > 240 µM | 25.3 µM | 32.2 µM | 94.3% |
